Experiment [1] concerns Col4a3-deficient mice. Put plainly: Col4a3-deficient mice, model of Alport syndrome (chronic kidney disease). The class given is in vivo. To be noted: 60 mg/kg daily PO. As for the experimental part:
(§1) Activity of compounds of the invention was confirmed in vivo. Two chronic kidney disease models were employed: (1) Tg26 mice, a model of HIV-associated nephropathy, and (2) Col4a3-null mice, a model of Alport syndrome. Both CKD models are characterized by advanced glomerulosclerosis and tubulointerstitial fibrosis, leading to kidney failure and death approximately between 12 and 20 weeks of age.
Three-week old Col4a3-deficient mice were treated with Example 13 (60 mg/kg daily, PO) or vehicle for 6 weeks. The median survival in vehicle group was 56 days, which was increased to 68 days in the treated group (21% increase).

The subject of experiment [2] is TGF/SMAD Signaling Pathway SBE Reporter—HEK293 Cell Line. Put plainly: Luciferase screen, TGF/SMAD SBE reporter HEK293 cells stimulated with TGFβ. Type of experiment: cell-based. The settings on record: Homo sapiens. The method, then:
For the data in Table 1, the Bight-Glo™ Luciferase Assay System from Promega was used with TGF/SMAD Signaling Pathway SBE Reporter—HEK293 Cell Line from BPSbioscience. On day 1 SBE reporter-HEK293 cells were seeded at a density of 25,000 cells per well into a white clear-bottom 96-well microplate in 100 μl of growth medium without geneticin. The plate was incubated at 37° C. in a CO2 incubator for 24 hrs. The wells were renewed with 60 μL assay medium and treated with test compounds by adding 5 μL of compounds in medium. The concentration of test compound in medium is adjusted so that 5 μL will provide the desired molarity of the solution. For example, if the desired test concentration is 30 µM, then 5 μL of […] compound is added. After 4 hours, TGFβ was added to 10 ng/mL. The plate was incubated at 37° C. in a CO2 incubator overnight (18 hours). One hour prior to assay all medium was replaced. The luciferase assay was run using ONE-Step™ Luciferase Assay System by adding 100 al of ONE-Step™ Luciferase reagent per well, rocking at room temperature for ~15 to 30 minutes and measuring luminescence using a luminometer. The signals were normalized to percentage inhibition, with non-TGF treated cells as 100% inhibition, and the data were processed by Graphpad Prism.

In experiment [3] the test system is Tg26 mice. Put plainly: Tg26 mice, model of HIV-associated nephropathy (chronic kidney disease). Type of experiment: in vivo.
Source text: as §1
Tg26 mice of FVB/N genetic background bearing a defective HIV-1 provirus lacking gag-pol have been described by Feng et al. [J Am Soc Nephrol 2009; 20: 2138-2146]. Six-week old heterozygous Tg26 mice are used. Wildtype littermates are used as controls. Mice in the treatment group receive test compound dissolved in 20% NMP, 60% PEG400, and 20% H2O by oral gavage at a dose of 30, 60, or 90 mg/kg body weight per day. Mice in the control group receive the same volume of vehicle. The mice are treated for a total of 4 weeks and sacrificed at age of 10 weeks. […] In another trial, 5- to 6-week old Tg26 mice were treated with Example 13 (90 mg/kg daily, PO) or vehicle for 4 weeks: 38% (8/21 mice) died of kidney failure in the control group within the experimental duration; 0% died in the HIPK2i-174 group (0/18 mice). […] [Because of significant inter-variability of baseline UACR in Tg26 mice at 5-6 weeks of age, the therapeutic effect is calculated based on fold change to baseline for each mouse.]

Setting [4] is: SBE reporter-HEK293 cells, TGFβ 10 ng/mL, 18 hours, read-out: Luciferase IC50.
[5] abbreviates: another trial, 90 mg/kg daily PO, 4 weeks.
Setting [6] is: first trial, four-week treatment, n=8.
Where [7] appears, read: first trial, four-week treatment, vs. vehicle.
The mark [8] stands for this setting: HEK293, 18 h, read-out: Luciferase IC50 nM.

This is an account of results in patent US12673956B2, “Oxadiazolyl dihydropyrano[2,3-b]pyridine inhibitors of HIPK2 for treating kidney fibrosis” (ICAHN SCHOOL OF MEDICINE AT MOUNT SINAI, priority 2021, dated 2026).

Broadly, the IC50 is the concentration that gives 50% inhibition.

Each structure is given as a SMILES string. Read-outs that look alike come from different tables or passages of the source.

As for `CC1(C)Oc2ncc(-c3nc(-c4ccc(Cl)cc4)no3)cc2CC1O` (stereo in doubt) [Example 13, (S)-6-(3-(4-chlorophenyl)-1,2,4-oxadiazol-5-yl)-2,2-dimethyl-3,4-dihydro-2H-pyrano[2,3-b]pyridin-3-ol], in experiment [1] (6 weeks), the “increase of median survival vs. vehicle group” value worked out at 21% and the “reduction in kidney fibrosis (picrosirius red staining) in comparison to vehicle group” value is ~ 51%. Further, the “kidney fibrosis assessed by picrosirius red histological staining” value in experiment [1] (6 weeks, n=9) is 13.7±6.3%. Besides, in experiment [1] (after 6 weeks of treatment), the “reduction of urinary albumin-to-creatinine ratio vs. vehicle” value was ~ 45% and the urinary albumin-to-creatinine ratio worked out at 41.4 ± 14.2 mg/mg. Besides, the median survival in experiment [1] (three-week old mice, 6 weeks) is 68 days. For the same compound, in experiment [2] (setting [4]), the IC50 amounted to 156 nM. For the same compound, in experiment [3] (setting [5]), the “reduction in kidney fibrosis (picrosirius red staining) in comparison to vehicle group” value is on record as ~ 37% and the “reduction of urinary albumin-to-creatinine ratio from baseline values” is reported as ~ 57%. Further, the “urinary albumin-to-creatinine ratio, fold change to baseline” value in experiment [3] (another trial, 90 mg/kg daily PO, 4 weeks, n=17) was 0.43±0.28. Moreover, in experiment [3] (another trial, 90 mg/kg daily PO, 4 weeks, n=18), the “kidney fibrosis assessed by picrosirius red histological staining” value was determined as 2.8±1.2%. Further, the “died of kidney failure within the experimental duration” value in experiment [3] (another trial, 5- to 6-week old Tg26 mice, 90 mg/kg daily PO, 4 weeks, 0/18 mice) stood at 0%. The “Hazard ratio comparing vehicle vs. treatment” value in experiment [3] (first trial, four-week treatment, Log-rank Mantel-Cox test) is reported as 7.2. Further, in experiment [3] (setting [6]), the “average fold change in urinary albumin-to-creatinine ratio from week 0 to week 4” value was found to be 0.352 and the “renal fibrosis, average % area” value came to 2.540%. In experiment [3] (setting [7]), the “reduction in average fold change in urinary albumin-to-creatinine ratio” value is on record as ~ 65% and the “reduction in renal fibrosis area” value is given as ~ 43%. In experiment [3] (first trial, six-week old Tg26 mice, oral gavage 30, 60, or 90 mg/kg per day, four-week treatment, n=20), this compound had a survival of 100%.

As to `CC1(C)Oc2ncc(-c3nc(-c4ncc(Cl)s4)no3)cc2C[C@@H]1O` [Example 23, (S)-6-(3-(5-chlorothiazol-2-yl)-1,2,4-oxadiazol-5-yl)-2,2-dimethyl-3,4-dihydro-2H-pyrano[2,3-b]pyridin-3-ol], the IC50 in experiment [2] (setting [4]) is 242 nM.

Regarding `CC1(C)Oc2ncc(-c3nc(-c4cccc(F)c4)no3)cc2C[C@H]1O` [Example 38, (R)-6-(3-(3-fluorophenyl)-1,2,4-oxadiazol-5-yl)-2,2-dimethyl-3,4-dihydro-2H-pyrano[2,3-b]pyridin-3-ol], in experiment [2] (setting [4]), the IC50 turned out to be 148 nM.

Take `CC1(C)Oc2ncc(-c3nc(-c4ccc(Br)cc4)no3)cc2C[C@@H]1O` [Example 7, (S)-6-(3-(4-bromophenyl)-1,2,4-oxadiazol-5-yl)-2,2-dimethyl-3,4-dihydro-2H-pyrano[2,3-b]pyridin-3-ol]: in experiment [2] (setting [8]), the IC50 is 37 nM.

With `CC1(C)Oc2ncc(-c3nc(-c4ccc(Br)cc4)no3)cc2C[C@H]1O` [Example 6, (R)-6-(3-(4-bromophenyl)-1,2,4-oxadiazol-5-yl)-2,2-dimethyl-3,4-dihydro-2H-pyrano[2,3-b]pyridin-3-ol], in experiment [2] (setting [8]), the IC50 stood at 27 nM.

Take `Cc1cc(-c2noc(-c3cnc4c(c3)C[C@H](O)C(C)(C)O4)n2)ccc1Cl` [Example 36, (3S)-6-[3-(4-chloro-3-methyl-phenyl)-1,2,4-oxadiazol-5-yl]-2,2-dimethyl-3,4-dihydropyrano[2,3-b]pyridin-3-ol]: the IC50 in experiment [2] (setting [8]) was 52 nM.
